One block for each compound: values may come before it.
Columns and labels:
[1] = system: Human immunodeficiency virus 1; test: Antiviral activity against HIV-1 YU-2 infected in human TZM-bl cells measured after 48 hrs incubation by luciferase based analysis; format: functional, organism-based; conditions: Human immunodeficiency virus 1, YU-2, TZM-bl, 48 h
[2] = system: Human immunodeficiency virus 1; test: Antiviral activity against HIV-1 KIZ006 clinical isolate infected in human PBMC measured after 48 hrs incubation by luciferase based analysis; format: functional, organism-based; conditions: Human immunodeficiency virus 1, KIZ006, PBMC
in vitro [3] = conditions: human, HOS-CD4-CCR5 cells
Description: Therapeutic index, ratio of CC50 for human HOS-CD4-CCR5 cells to EC50 for antiviral activity against HIV-1 Ba-L

[4] = biological target: C-C chemokine receptor type 5 (Homo sapiens, UniProt P51681); test: Antagonist activity at CCR5 (unknown origin) expressed in HEK293 cells co-expressing Galpha16 assessed as intracellular calcium change incubated for 15 mins by Fluo-4 AM calcium flux assay; format: functional, cell-based
[5] = MRT in Sprague-Dawley rat at 10 mg/kg, po measured upto 24 hrs; format: ADME, organism-based; conditions: in vivo
in vitro [6] = conditions: human, TZM-bl cells
Description: Therapeutic index, ratio of CC50 for human TZM-bl cells to EC50 for antiviral activity against HIV-1 Ba-L

[7] = MRT in Sprague-Dawley rat at 2 mg/kg, iv measured upto 24 hrs; format: ADME, organism-based; conditions: in vivo, iv, 2 mg/kg, 24 h
in vitro [8] = conditions: human, PBMC
Description: Therapeutic index, ratio of CC50 for human PBMC to EC50 for antiviral activity against HIV-1 KIZ001 clinical isolate

[9] = Cytotoxicity against human PM1 cells incubated for 48 hrs by MTT assay; format: toxicity, cell-based
[10] = Cytotoxicity against human HOS-CD4-CCR5 cells incubated for 48 hrs by MTT assay; format: toxicity, cell-based
[11] = system: Human immunodeficiency virus 1; test: Antiviral activity against HIV-1 YU-2 (G140S/Q148H) infected in human TZM-bl cells measured after 48 hrs incubation by luciferase based analysis; format: functional, organism-based; conditions: Human immunodeficiency virus 1, YU-2 (G140S/Q148H)
[12] = AUC (0 to last) in Sprague-Dawley rat at 2 mg/kg, iv measured upto 24 hrs; format: ADME, organism-based; design: dose 2 mg/kg, time < 24 hrs, route iv; conditions: Sprague-Dawley, in vivo
[13] = system: Human immunodeficiency virus 1; test: Antiviral activity against HIV-1 Ba-L infected in human PM1 cells measured after 48 hrs incubation by ELISA based p24 antigen assay; format: functional, organism-based; conditions: Human immunodeficiency virus 1, Ba-L, PM1, 48 h
Cytochrome P450 1A2 = biological target: T1, Cytochrome P450 1A2 (Homo sapiens, UniProt P05177); test: Inhibition of CYP1A2 (unknown origin); format: ADME
T1 sequence (P05177 whole entry): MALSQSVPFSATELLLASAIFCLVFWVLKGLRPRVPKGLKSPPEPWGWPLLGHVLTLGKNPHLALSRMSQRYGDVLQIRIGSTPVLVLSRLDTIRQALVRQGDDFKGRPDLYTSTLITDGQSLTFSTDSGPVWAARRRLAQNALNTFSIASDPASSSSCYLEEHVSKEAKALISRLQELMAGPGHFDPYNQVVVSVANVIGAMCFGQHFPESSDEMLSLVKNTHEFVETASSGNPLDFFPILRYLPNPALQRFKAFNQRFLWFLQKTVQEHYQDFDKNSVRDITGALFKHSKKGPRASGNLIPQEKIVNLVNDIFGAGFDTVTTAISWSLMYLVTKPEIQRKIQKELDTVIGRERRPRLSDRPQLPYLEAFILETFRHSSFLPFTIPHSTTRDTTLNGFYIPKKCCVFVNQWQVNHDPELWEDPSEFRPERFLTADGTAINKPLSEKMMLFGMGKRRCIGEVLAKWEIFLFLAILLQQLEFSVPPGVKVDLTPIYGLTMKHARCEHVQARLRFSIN

[14] = Cytotoxicity against human PBMC cells incubated for 48 hrs by MTT assay; format: toxicity, cell-based
Cytochrome P450 3A4 [15] = biological target: T2, Cytochrome P450 3A4 (Homo sapiens, UniProt P08684); test: Inhibition of CYP3A4 (unknown origin) using midazolam as substrate; format: ADME
in vitro [16] = conditions: human, PM1 cells
Description: Therapeutic index, ratio of CC50 for human PM1 cells to EC50 for antiviral activity against HIV-1 Ba-L

[17] = AUC (0 to last) in Sprague-Dawley rat at 10 mg/kg, po measured upto 24 hrs; format: ADME, organism-based; design: dose 10 mg/kg, time < 24 hrs, route po; conditions: in vivo
[18] = system: Human immunodeficiency virus 1; test: Antiviral activity against HIV-1 SF162 infected in human TZM-bl cells measured after 48 hrs incubation by luciferase based analysis; format: functional, organism-based; conditions: Human immunodeficiency virus 1, SF162, TZM-bl
[19] = Tmax in Sprague-Dawley rat at 10 mg/kg, po measured upto 24 hrs; format: ADME, organism-based; conditions: in vivo
[20] = system: Human immunodeficiency virus 1; test: Antiviral activity against HIV-1 KIZ001 clinical isolate infected in human PBMC measured after 48 hrs incubation by luciferase based analysis; format: functional, organism-based; conditions: Human immunodeficiency virus 1, KIZ001, PBMC
[21] = Cmax in Sprague-Dawley rat at 10 mg/kg, po measured upto 24 hrs; format: ADME, organism-based; design: time < 24 hrs, dose 10 mg/kg, route po; conditions: in vivo
in vitro [22] = conditions: human, PBMC; remark: listed apart in the source
Description: Therapeutic index, ratio of CC50 for human PBMC to EC50 for antiviral activity against HIV-1 KM018 clinical isolate

in vitro [23] = conditions: human, PM1 cells; remark: listed apart in the source
Description: Therapeutic index, ratio of CC50 for human PM1 cells to EC50 for antiviral activity against HIV-1 SF162

[24] = Cytotoxicity against human TZM-bl cells incubated for 48 hrs by MTT assay; format: toxicity, cell-based
[25] = Oral bioavailability in Sprague-Dawley rat at 10 mg/kg measured upto 24 hrs; format: ADME, organism-based; conditions: Sprague-Dawley, in vivo
in vitro [26] = conditions: human, PM1 cells; remark: listed apart in the source
Description: Therapeutic index, ratio of CC50 for human PM1 cells to EC50 for antiviral activity against HIV-1 YU-2

[27] = Half life in Sprague-Dawley rat at 10 mg/kg, po measured upto 24 hrs; format: ADME, organism-based; conditions: in vivo
in vitro [28] = conditions: human, PBMC; remark: listed apart in the source
Description: Therapeutic index, ratio of CC50 for human PBMC to EC50 for antiviral activity against HIV-1 KIZ006 clinical isolate

[29] = AUC (0 to infinitive) in Sprague-Dawley rat at 2 mg/kg, iv measured upto 24 hrs; format: ADME, organism-based; design: dose 2 mg/kg, time < 24 hrs, route iv; conditions: Sprague-Dawley, in vivo
[30] = system: Human immunodeficiency virus 1; test: Antiviral activity against HIV-1 Ba-L infected in human HOS-CD4-CCR5 cells measured after 48 hrs incubation by ELISA based p24 antigen assay; format: functional, organism-based; conditions: Human immunodeficiency virus 1, Ba-L
Cytochrome P450 2D6 = Cytochrome P450 2D6 (Homo sapiens, UniProt P10635); test: Inhibition of CYP2D6 (unknown origin); format: ADME
[31] = Half life in Sprague-Dawley rat at 2 mg/kg, iv measured upto 24 hrs; format: ADME, organism-based; conditions: in vivo
[32] = AUC (0 to infinitive) in Sprague-Dawley rat at 10 mg/kg, po measured upto 24 hrs; format: ADME, organism-based; design: dose 10 mg/kg, time < 24 hrs, route po; conditions: Sprague-Dawley, in vivo
Cytochrome P450 3A4 [33] = biological target: T2, Cytochrome P450 3A4; test: Inhibition of CYP3A4 (unknown origin) using testosterone as substrate; format: ADME
[34] = system: Human immunodeficiency virus 1; test: Antiviral activity against HIV-1 IIIB infected in human TZM-bl cells measured after 48 hrs incubation by luciferase based analysis; format: functional, organism-based; conditions: Human immunodeficiency virus 1, IIIB
Cytochrome P450 2C19 = Cytochrome P450 2C19 (Homo sapiens, UniProt P33261); test: Inhibition of CYP2C19 (unknown origin); format: ADME
[35] = system: Human immunodeficiency virus 1; test: Antiviral activity against HIV-1 KM018 clinical isolate infected in human PBMC measured after 48 hrs incubation by luciferase based analysis; format: functional, organism-based; conditions: Human immunodeficiency virus 1, KM018, PBMC
[36] = system: Human immunodeficiency virus 1; test: Antiviral activity against HIV-1 Ba-L infected in human TZM-bl cells measured after 48 hrs incubation by luciferase based analysis; format: functional, organism-based; conditions: Human immunodeficiency virus 1, Ba-L
Cytochrome P450 2C9 = Cytochrome P450 2C9 (Homo sapiens, UniProt P11712); test: Inhibition of CYP2C9 (unknown origin); format: ADME
[37] = Half life in Sprague-Dawley rat at 1 mg/kg, iv measured upto 24 hrs; format: ADME, organism-based; conditions: in vivo
[38] = Clearance in Sprague-Dawley rat at 1 mg/kg, iv measured upto 24 hrs; format: ADME, organism-based; conditions: in vivo

Cytochrome P450 2C9, sequence (P11712 whole entry): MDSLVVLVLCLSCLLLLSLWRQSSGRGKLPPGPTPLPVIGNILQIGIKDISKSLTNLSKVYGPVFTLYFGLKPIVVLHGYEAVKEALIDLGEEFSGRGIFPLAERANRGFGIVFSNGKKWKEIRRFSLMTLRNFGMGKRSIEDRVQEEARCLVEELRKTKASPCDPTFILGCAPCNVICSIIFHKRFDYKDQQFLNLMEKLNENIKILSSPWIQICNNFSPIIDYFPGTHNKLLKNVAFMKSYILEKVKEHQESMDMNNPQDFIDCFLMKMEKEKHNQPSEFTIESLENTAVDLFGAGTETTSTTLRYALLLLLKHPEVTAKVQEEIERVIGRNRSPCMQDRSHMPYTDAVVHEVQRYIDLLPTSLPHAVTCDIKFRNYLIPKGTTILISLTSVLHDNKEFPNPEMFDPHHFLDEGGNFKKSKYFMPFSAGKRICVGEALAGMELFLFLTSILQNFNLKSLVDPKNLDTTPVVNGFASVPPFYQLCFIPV
Cytochrome P450 2C19, sequence (P33261 whole entry): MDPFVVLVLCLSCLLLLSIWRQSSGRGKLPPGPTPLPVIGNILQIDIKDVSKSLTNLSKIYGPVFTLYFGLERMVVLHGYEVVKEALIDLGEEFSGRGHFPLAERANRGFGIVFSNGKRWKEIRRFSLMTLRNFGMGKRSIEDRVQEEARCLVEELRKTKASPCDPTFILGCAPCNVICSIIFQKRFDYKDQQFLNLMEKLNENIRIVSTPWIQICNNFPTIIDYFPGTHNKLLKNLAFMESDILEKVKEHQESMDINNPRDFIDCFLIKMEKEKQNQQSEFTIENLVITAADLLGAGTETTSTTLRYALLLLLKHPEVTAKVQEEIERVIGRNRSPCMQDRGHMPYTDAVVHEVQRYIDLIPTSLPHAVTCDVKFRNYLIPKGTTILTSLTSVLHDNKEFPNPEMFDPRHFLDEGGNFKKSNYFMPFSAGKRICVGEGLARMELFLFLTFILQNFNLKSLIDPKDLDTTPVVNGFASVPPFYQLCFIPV
T2 sequence (P08684 whole entry): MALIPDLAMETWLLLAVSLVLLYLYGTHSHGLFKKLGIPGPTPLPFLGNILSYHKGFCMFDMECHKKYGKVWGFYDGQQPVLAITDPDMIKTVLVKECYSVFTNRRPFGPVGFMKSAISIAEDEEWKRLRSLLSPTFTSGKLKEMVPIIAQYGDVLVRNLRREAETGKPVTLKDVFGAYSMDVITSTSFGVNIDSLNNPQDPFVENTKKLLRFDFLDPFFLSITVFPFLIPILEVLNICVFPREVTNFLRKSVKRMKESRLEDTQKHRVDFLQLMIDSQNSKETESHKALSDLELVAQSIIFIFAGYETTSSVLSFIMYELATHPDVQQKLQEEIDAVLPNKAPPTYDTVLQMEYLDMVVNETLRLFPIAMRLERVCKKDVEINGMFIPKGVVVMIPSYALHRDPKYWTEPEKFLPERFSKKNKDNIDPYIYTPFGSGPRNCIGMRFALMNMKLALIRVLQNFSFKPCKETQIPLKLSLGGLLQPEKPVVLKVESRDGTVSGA
Cytochrome P450 2D6, sequence (P10635 whole entry): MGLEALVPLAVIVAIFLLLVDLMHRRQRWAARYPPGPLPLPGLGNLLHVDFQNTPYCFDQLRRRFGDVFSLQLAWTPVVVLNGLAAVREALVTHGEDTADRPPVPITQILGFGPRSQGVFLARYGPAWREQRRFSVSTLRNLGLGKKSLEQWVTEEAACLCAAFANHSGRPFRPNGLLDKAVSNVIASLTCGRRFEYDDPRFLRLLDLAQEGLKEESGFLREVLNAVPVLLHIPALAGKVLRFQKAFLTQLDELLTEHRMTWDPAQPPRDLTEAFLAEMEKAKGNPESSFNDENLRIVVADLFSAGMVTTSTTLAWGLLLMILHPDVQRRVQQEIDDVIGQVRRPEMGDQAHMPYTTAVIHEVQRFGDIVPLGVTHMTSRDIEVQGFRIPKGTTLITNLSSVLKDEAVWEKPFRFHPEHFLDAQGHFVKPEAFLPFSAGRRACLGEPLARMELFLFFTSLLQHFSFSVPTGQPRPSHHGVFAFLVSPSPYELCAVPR
C-C chemokine receptor type 5, sequence (P51681 whole entry): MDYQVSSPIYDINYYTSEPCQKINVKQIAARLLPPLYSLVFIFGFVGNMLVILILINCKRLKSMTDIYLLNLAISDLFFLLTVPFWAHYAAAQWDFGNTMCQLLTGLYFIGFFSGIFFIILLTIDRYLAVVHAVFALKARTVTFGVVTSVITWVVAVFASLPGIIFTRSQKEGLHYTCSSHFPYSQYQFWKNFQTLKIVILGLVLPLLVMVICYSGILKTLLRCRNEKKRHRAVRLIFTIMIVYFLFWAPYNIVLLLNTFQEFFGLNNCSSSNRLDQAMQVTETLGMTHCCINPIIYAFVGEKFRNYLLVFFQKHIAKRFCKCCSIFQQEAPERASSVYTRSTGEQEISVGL

Compound: Cc1nc2c(n1[C@@H]1C[C@H]3CC[C@@H](C1)N3CC[C@H](NC(=O)C1CCC(F)(F)CC1)c1ccsc1)CCN(C(=O)C(C)C)C2
- EC50 [1]: 8.73 nM
- EC50 [2]: 12.6 nM
- selectivity ratio (in vitro [3]): > 12800
- IC50 [4]: 8.34 nM
- MRT [5]: 13.2 h
- selectivity ratio (in vitro [6]): > 18200
- MRT [7]: 13.2 h
- selectivity ratio (in vitro [8]): 10400
- CC50 at 48 h [9]: > 200000 nM
- CC50 at 48 h [10]: > 200000 nM
- EC50 [11]: 4.34 nM
- AUC(0-t) at 24 h [12]: 298 ng·h/mL
- EC50 [13]: 0.5 nM
- IC50 (Cytochrome P450 1A2): > 25000 nM
- CC50 at 48 h [14]: 81700 nM
- IC50 (Cytochrome P450 3A4 [15]): > 25000 nM
- selectivity ratio (in vitro [16]): > 40000
- AUC(0-t) at 24 h [17]: 283 ng·h/mL
- EC50 [18]: 16 nM
- Tmax [19]: 2 h
- EC50 [20]: 7.82 nM
- Cmax [21]: 49.5 ng/mL
- selectivity ratio (in vitro [22]): 2550
- selectivity ratio (in vitro [23]): > 12500
- CC50 at 48 h [24]: > 200000 nM
- bioavailability [25]: 15.7%
- selectivity ratio (in vitro [26]): > 22900
- half-life [27]: 10.3 h
- selectivity ratio (in vitro [28]): 6480
- AUC(0-inf) [29]: 283 ng·h/mL
- EC50 [30]: 1.56 nM
- IC50 (Cytochrome P450 2D6): > 25000 nM
- t1/2 ([31]; iv, 2 mg/kg, 24 h): 1.6 h
- AUC(0-inf) [32]: 283 ng·h/mL
- IC50 (Cytochrome P450 3A4 [33]): > 25000 nM
- EC50 [34]: > 1000 nM
- IC50 (Cytochrome P450 2C19): > 25000 nM
- EC50 [35]: 32 nM
- EC50 [36]: 11 nM
- IC50 (Cytochrome P450 2C9): > 25000 nM

- half-life [37]: 0.9 h
- IC50 (Cytochrome P450 1A2): > 25000 nM
- clearance [38]: 74 mL/min/kg
- Tmax [19]: 2 h
- Cmax [21]: 5.5 ng/mL
- IC50 (Cytochrome P450 2D6): > 25000 nM
- half-life ([31]; Sprague-Dawley): 0.9 h
- AUC(0-inf) [32]: 12.4 ng·h/mL
- IC50 (Cytochrome P450 2C19): > 25000 nM
- IC50 (Cytochrome P450 2C9): 14400 nM
Compound: Cc1nnc(C(C)C)n1[C@@H]1C[C@H]2CC[C@@H](C1)N2CC[C@H](NC(=O)C1CCC(F)(F)CC1)c1ccccc1 [MARAVIROC]
- CC50 at 48 h [9]: > 200000 nM
- CC50 at 48 h [10]: > 200000 nM
- CC50 at 48 h [14]: > 200000 nM
- CC50 at 48 h [24]: > 200000 nM

Reference: ChEMBL document CHEMBL5150068, “Structure-Based Design of Tropane Derivatives as a Novel Series of CCR5 Antagonists with Broad-Spectrum Anti-HIV-1 Activities and Improved Oral Bioavailability” (J Med Chem, 2022)
